# Assay results published in ChEMBL document CHEMBL1201862, “PubChem BioAssay data set” (2004).
# Calls of active or inactive are those of the source. For most assays here, no stated cut-off is given here; in the data, actives have a measured EC50 and inactives only a lower limit.
# System: H4
# Experiment: Luminescence Cell-Based Dose Response HTS to Identify Activators of 5'UTR Stem-Loop Driven Prion Protein mRNA Translation in H4 Neuroglioblastoma Cells. [Related pubchem assays: 1829 (Project Summary), 1814 (Primary HTS)]
# Format: functional
# Details: Homo sapiens
row,Compound,EC50
1,Nn1c(SCc2ccccc2F)nnc1-c1cccnc1,33.4 µM (active)
2,COc1ccccc1NS(=O)(=O)c1ccc(-c2cc(C)no2)s1,> 120 µM (not active)
3,O=C(NCCC1=CCCCC1)c1cnccn1,11 µM (active)
4,CC(=O)Cn1ncc(N2CCCCC2)c(Cl)c1=O,23.5 µM (active)
5,c1ccc(-c2cc3n(c2)CCc2ccccc2-3)cc1,22.7 µM (active)
6,Cc1nc2cc(NC(=O)N3CCC(c4ccccc4)C3)ccc2n1C (configuration not stated),27.4 µM (active)
7,COc1ccc(OCc2cc(C(=O)N(C)Cc3cc(C4CC4)[nH]n3)no2)c(Cl)c1,37.8 µM (active)
8,CN1CCN(C2=C(Cl)C(=O)N(C3CCCCC3)C2=O)CC1,> 120 µM (not active)

# System: not listed separately
# Experiment: viability of uninfected HEp-2 cells – cell-based, HTS, cytotoxicity control for RSV inhibitor project, dose response (AID 2410)
# Format: functional
# Details: human respiratory syncytial virus
row,Compound,CC50
1,O=C(CCc1nnc2n(Cc3ccc(F)cc3)c(=O)c3ccccc3n12)N1CCN(c2ccccn2)CC1,37.4 µM (active)
2,CCOC(=O)c1c(C)n(C)c2ccc(OCC(O)Cn3c(C)nc4ccccc43)cc12 (configuration not stated),19.4 µM (active)
3,CC1CCc2[nH]c3ccc(C(=O)N(C)CC(=O)Nc4ccccc4Br)cc3c2C1 (configuration not stated),22 µM (active)
4,Cc1noc(C)c1COC(=O)c1cc2ccccc2cc1O,43.1 µM (active)
5,NC(=O)c1sc2nc(N3CCOCC3)c3c(c2c1N)CCCC3,> 50 µM (active)
6,Cc1ccccc1C1c2[nH]c3ccccc3c2CCN1C(=O)c1ccc(=O)n(C)n1 (configuration not stated),20.4 µM (active)
7,COc1ccc(S(=O)(=O)N2CCN(c3nc(-c4cccnc4)nc4ccccc34)CC2)cc1,30.4 µM (active)

# System: not listed separately
# Experiment: Luminescence Cell-Based Dose Response HTS to Identify Activators of Luciferase Translation or Activity in H4 […] Cells. [Related pubchem assays: 1829 (Project Summary), 1814 (Primary HTS)]
# Format: functional
# Details: not given
row,Compound,EC50
1,Nn1c(SCc2ccccc2F)nnc1-c1cccnc1,36.8 µM (active)
2,COc1ccccc1NS(=O)(=O)c1ccc(-c2cc(C)no2)s1,> 30 µM (not active)
3,O=C(NCCC1=CCCCC1)c1cnccn1,4.95 µM (active)
4,CC(=O)Cn1ncc(N2CCCCC2)c(Cl)c1=O,11.5 µM (active)
5,c1ccc(-c2cc3n(c2)CCc2ccccc2-3)cc1,15.9 µM (active)
6,Cc1nc2cc(NC(=O)N3CCC(c4ccccc4)C3)ccc2n1C (configuration not stated),17.7 µM (active)
7,COc1ccc(OCc2cc(C(=O)N(C)Cc3cc(C4CC4)[nH]n3)no2)c(Cl)c1,69.5 µM (active)
8,CN1CCN(C2=C(Cl)C(=O)N(C3CCCCC3)C2=O)CC1,19.8 µM (active)

# System: not listed separately
# Experiment: Luminescence Cell-Based Dose Confirmation HTS to Identify Activators of 5'UTR Stem-Loop Driven Alpha-Synuclein mRNA Translation in H4 Neuroglioblastoma Cells. [Related pubchem assays: 1829 (Project Summary), 1814 (Primary HTS)]
# Format: functional
# Details: not given
row,Compound,EC50
1,Nn1c(SCc2ccccc2F)nnc1-c1cccnc1,64.2 µM (active)
2,COc1ccccc1NS(=O)(=O)c1ccc(-c2cc(C)no2)s1,> 120 µM (not active)
3,O=C(NCCC1=CCCCC1)c1cnccn1,8.37 µM (active)
4,CC(=O)Cn1ncc(N2CCCCC2)c(Cl)c1=O,24.6 µM (active)
5,c1ccc(-c2cc3n(c2)CCc2ccccc2-3)cc1,10.7 µM (active)
6,Cc1nc2cc(NC(=O)N3CCC(c4ccccc4)C3)ccc2n1C (configuration not stated),46.9 µM (active)
7,COc1ccc(OCc2cc(C(=O)N(C)Cc3cc(C4CC4)[nH]n3)no2)c(Cl)c1,28.2 µM (active)
8,CN1CCN(C2=C(Cl)C(=O)N(C3CCCCC3)C2=O)CC1,8.46 µM (active)

# Target: T1, Heat shock factor protein 1 (Mus musculus, UniProt P38532)
# T1 sequence (P38532 whole entry): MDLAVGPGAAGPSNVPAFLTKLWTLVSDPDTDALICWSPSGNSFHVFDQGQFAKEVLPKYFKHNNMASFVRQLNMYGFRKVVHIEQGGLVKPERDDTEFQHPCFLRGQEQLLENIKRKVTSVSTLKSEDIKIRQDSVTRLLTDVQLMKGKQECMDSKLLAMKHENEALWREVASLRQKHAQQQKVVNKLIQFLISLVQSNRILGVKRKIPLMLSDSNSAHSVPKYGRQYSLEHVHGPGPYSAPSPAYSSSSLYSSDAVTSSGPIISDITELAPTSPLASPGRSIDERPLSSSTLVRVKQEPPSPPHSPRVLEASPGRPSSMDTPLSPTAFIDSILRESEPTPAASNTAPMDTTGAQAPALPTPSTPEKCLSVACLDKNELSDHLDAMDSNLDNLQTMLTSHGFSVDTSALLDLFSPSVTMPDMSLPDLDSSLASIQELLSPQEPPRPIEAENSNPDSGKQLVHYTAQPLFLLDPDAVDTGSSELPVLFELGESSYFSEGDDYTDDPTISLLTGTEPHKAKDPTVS
# Experiment: enhancement of HSF1-driven luciferase signal – cell-based, NIH3T3, luminescence, dose retest, confirmation (AID 435004);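 further: stress induced by proteasome inhibitor MG132 added 30 min after compound; luciferase reporter driven by HSF1 response element in NIH3T3 cells; actives raise luminescence as potentiators of the MG132 stress response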
# Format: functional
# Details: not given
row,Compound,EC50
1,O=C(O)CCc1ccc(-c2ccc(Br)cc2)n1Cc1ccco1,> 260 µM (inactive)
